Data as given in patent US5117830A, “Method of determining viability of tissue” (priority 1990, dated 1992).
Where two headings read alike, the source gives them in different places.

Assays:
A2 adenosine receptors = assay: Antagonism of adenosine agonists in decreasing contractile tone of guinea pig taenia caecum (A2); conditions: for antagonism of the effects of adenosine agonists in relaxing the taenia caecum: guinea pig taenia caecum; for selectivity for A1 adenosine receptors: lack of competitive antagonism in taenia caecum
Method: Taenia from the guinea pig caecum were cut into lengths of 1.5-2 cm. The tissues were suspended in a 20 ml organ bath containing de Jalon's solution that was gassed with 95% O2 +5% CO2 and maintained at 31° C. The resting tension was 1.5 g. The contractile response was measured isotonically.
(§1) The ability of the compounds to antagonize the effects of agonists was analyzed using modified Schild plots.

[1] = tested on: rat cortical A1 receptors; assay: Displacement of [^3 H]-CHA from rat cortical A1 receptors; format: binding; conditions: Table 4
Method: Varying concentrations of test compounds were incubated with the appropriate radioligand and membrane source for 1 hr at room temperature.
Assays were terminated by filtration over Whatman GF/B filters that had been pre-soaked with 0.1% polyethyleneimine using a 24 port Brandell cell hawester. The filters were washed three times with 3 ml of ice cold buffer and transferred to plastic scintillation vials to which 4 ml of Beckman Ready-Protein scintillation cocktail was added. The tubes were shaken and counted in a Beckman 3801 scintillation counter that converted cpm to dpm.
Data were analyzed by utilizing the Ligand commercial computer program (Munson and Rodbard, 1980).
Male Sprague Dawley rats were killed by decapitation and the brains removed. The cerebral cortices were homogenized in 50 mm Tris; 2mm MgCl2 (pH 7.4), and centrifuged at 40,000×g for 10 minutes. […] The homogenate was centrifuged, washed once, resuspended to a protein concentration of 5-10 mg/ml and frozen at -70° C. until use.

[2] = tested on: rat heart rate and blood pressure; assay: In vivo rat heart rate and blood pressure
Method: Rats were anesthetized with urethan and blood pressure was monitored via a carotid cannula. Drug injections were made intravenously through a jugular cannula. Blood pressure, EGC, and heart rate were recorded on a Grass polygraph.

A1 adenosine receptors = molecular target: T1, A1 adenosine receptors (Cavia porcellus, UniProt P47745); assay: Antagonism of adenosine agonists in reducing force of contraction of guinea pig atrium (A1); conditions: for competitive antagonism at adenosine receptors in the atria / basal force of contraction in the atria: guinea pig atria
T1 construct: The left atria from male guinea pigs were isolated; from tissue; host or cells: guinea pig left atrium (whole tissue in organ bath)
T1 sequence (P47745 1-326): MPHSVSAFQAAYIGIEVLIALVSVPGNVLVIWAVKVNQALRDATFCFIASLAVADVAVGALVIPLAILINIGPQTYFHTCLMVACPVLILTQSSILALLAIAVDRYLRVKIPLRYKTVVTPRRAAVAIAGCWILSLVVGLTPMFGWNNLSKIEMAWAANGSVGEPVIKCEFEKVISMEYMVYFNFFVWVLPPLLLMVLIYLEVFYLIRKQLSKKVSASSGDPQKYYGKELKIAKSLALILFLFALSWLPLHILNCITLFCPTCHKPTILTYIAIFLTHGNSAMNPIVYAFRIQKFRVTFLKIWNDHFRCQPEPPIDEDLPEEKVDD
Method: The left atria from male guinea pigs were isolated, suspended between two punctate electrodes, and placed in a 20 ml organ bath that contained Krebs-Hensileit solution that was continuously gassed with 95% O2 +5% CO2 and maintained at 31° C. The resting tension was one gram. The atria were stimulated electrically at 1 Hz, 1 msec duration pulses at supramaximal voltage. The force of contraction was recorded isometrically.
as §1

adenosine receptors = conditions: cited from earlier work
[3] = cited from earlier work
coronary artery = conditions: cited from earlier work
patients = conditions: in vivo; cited from earlier work
A2 receptors [4] = conditions: vs N^6 -substituted analogs; cited from earlier work
A1 receptors [5] = molecular target: T2, A1 receptors (Rattus norvegicus, UniProt P25099); assay: Inhibition of N^6 -R-[^3 H]-phenylisopropyladenosine binding in rat brain membranes; parameters: rat brain membranes; from tissue; host or cells: rat brain (membranes); conditions: for Ki: (D) Rat Brain Membranes, read-out: Ki vs [^3 H] PIA (Binding), A1 Effects
T2 sequence (P25099 1-326): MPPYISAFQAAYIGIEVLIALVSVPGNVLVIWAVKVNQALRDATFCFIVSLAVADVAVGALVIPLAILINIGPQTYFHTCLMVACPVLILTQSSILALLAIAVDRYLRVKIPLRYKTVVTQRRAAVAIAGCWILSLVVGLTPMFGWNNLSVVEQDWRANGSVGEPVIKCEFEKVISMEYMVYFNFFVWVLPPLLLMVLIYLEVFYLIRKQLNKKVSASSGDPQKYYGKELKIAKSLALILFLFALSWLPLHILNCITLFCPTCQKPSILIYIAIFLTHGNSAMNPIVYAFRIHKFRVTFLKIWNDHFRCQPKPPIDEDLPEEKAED
Method: (§2) For activity at A1 receptors, compounds were tested as inhibitors of the binding of N^6 -R-[^3 H]-Phenylisopropyladenosine in rat brain membranes and for their ability to prevent R-PIA-induced inhibition of adenylate cyclase in rat fat cell membranes.

A2 receptors [6] = molecular target: T3, A2 receptors (Homo sapiens, UniProt P29274); assay: Antagonism of NECA-stimulated adenylate cyclase in human platelet membranes; format: biochemical
T3 construct: membranes of human platelets; from tissue; host or cells: human platelets (membranes)
T3 sequence (P29274 whole entry): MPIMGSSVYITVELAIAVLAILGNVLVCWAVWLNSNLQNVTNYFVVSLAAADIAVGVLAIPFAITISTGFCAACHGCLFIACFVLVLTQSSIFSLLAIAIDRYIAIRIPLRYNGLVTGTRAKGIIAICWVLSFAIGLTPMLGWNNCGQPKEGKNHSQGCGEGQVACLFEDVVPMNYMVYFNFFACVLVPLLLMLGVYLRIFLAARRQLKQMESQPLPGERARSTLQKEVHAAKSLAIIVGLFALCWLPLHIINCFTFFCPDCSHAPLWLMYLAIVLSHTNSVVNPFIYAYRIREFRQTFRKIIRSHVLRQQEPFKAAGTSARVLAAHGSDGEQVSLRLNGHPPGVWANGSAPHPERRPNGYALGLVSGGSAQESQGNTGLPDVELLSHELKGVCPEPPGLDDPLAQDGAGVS

A1 receptors [7] = molecular target: T2, A1 receptors; assay: Prevention of R-PIA-induced inhibition of adenylate cyclase in rat fat cell membranes; format: biochemical
Method: as §2

A2 receptors [8] = molecular target: T4, A2 receptors (Rattus norvegicus, UniProt P30543); assay: Antagonism of NECA-stimulated adenylate cyclase in rat PC12 membranes; format: biochemical; conditions: read-out: KB vs NECA Stimulation (Adenylate Cyclase), A2 Effects; (B) Rat PC12 Membranes
T4 construct: NECA-stimulated adenylate cyclase
T4 sequence (P30543 whole entry): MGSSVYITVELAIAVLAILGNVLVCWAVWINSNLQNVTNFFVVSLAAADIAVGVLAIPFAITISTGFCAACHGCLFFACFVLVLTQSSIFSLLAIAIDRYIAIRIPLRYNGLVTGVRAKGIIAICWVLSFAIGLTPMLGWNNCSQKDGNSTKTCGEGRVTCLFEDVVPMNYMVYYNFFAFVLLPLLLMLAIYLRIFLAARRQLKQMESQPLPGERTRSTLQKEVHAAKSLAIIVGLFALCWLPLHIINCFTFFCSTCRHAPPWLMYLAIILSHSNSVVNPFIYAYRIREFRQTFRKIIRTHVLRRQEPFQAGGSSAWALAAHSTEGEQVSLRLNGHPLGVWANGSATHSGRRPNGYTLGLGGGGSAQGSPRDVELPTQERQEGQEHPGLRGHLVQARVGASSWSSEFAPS
Method: For activity at A1 receptors, compounds were tested as inhibitors of the binding of N^6 -R-[^3 H]-Phenylisopropyladenosine in rat brain membranes and for their ability to prevent R-PIA-induced inhibition of adenylate cyclase in rat fat cell membranes. For activity at A2 receptors, compounds were tested as antagonists of NECA-stimulated adenylate cyclase in membranes of human platelets and rat PC12 cells.

[9] = anesthetized rats, high doses of adenosine
[10] = prior administration, NECA as agonist

## Cn1cnc2c(N[C@H]3C[C@H]4CC[C@@H]3C4)ncnc21 (relative stereo) [compound 0861, N^6-(endo-2-norbornyl)-9-MA]
A2 adenosine receptors
  antagonism of the effects of adenosine agonists in relaxing the taenia caecum: did not competitively antagonize
  selectivity for A1 adenosine receptors: selective for A1 adenosine receptors
[1]
  selectivity for A1 receptors over A2 receptors: 170 fold
[1]; ratio of Ki values
  A1 /A2: 5.89 × 10^-3
[2]; anesthetized rats, antagonist given before adenosine
  effects of subsequently administered adenosine on all parameters (blood pressure, heart rate, P-R interval): attenuated the effects of subsequently administered adenosine on all parameters measured
[2]; [9]
  adenosine-induced heart block: substantially reduced
[2]; [10]
  NECA-induced decrease in blood pressure: minimally affecting the NECA-induced decrease in blood pressure
  effects of NECA on the heart: attenuated the effects of NECA on the heart
[2]; rat
  selectivity in vivo: cardioselective adenosine receptor antagonist in vivo
A1 adenosine receptors; Table 2 compounds
  selectivity towards the A1 adenosine receptor / rank of potency: the most potent antagonist
A1 adenosine receptors
  competitive antagonism at adenosine receptors in the atria: competitive antagonists

## Cn1c(=O)c2[nH]c(-c3ccccc3)nc2n(C)c1=O [8-phenyltheophylline (8-PT), 8-phenyltheophylline, reference compound]
A2 adenosine receptors
  antagonism of the effects of adenosine agonists in relaxing the taenia caecum: did antagonize the effects of agonists at low concentrations
A2 adenosine receptors; high concentrations, larger response to agonist
  sensitization of the tissue: Sensitization is also observed when using high concentrations
Adenosine receptors
  receptor selectivity: non-selective adenosine receptor antagonist

## Nc1ncnc2c1ncn2[C@@H]1O[C@H](CO)[C@@H](O)[C@H]1O [Adenosine, reference compound]
[3]; in vivo
  half-life: less than two
[2]; [9]
  heart block: At high doses, adenosine causes heart block
[2]; anesthetized rats, intravenous
  P-R interval of the ECG: concomitant increase in the P-R interval
  blood pressure: dose dependent decrease in blood pressure
  heart rate: dose dependent decrease in blood pressure and heart rate
Coronary artery
  heart rate, ventilation and airway resistance: increases heart rate, and stimulates ventilation but does not alter airway resistance
  vasodilation / coronary blood flow: potent vasodilator, except in the kidney
patients
  side effects: a number of cardiovascular, respiratory, central nervous system, and gastrointestinal side effects

## OCCN(CCO)c1nc(N2CCCCC2)c2nc(N(CCO)CCO)nc(N3CCCCC3)c2n1 [Dipyridamole, dipyridamole]
[3]; dipyridamole
  half-life compared with adenosine: significantly longer half-life
Coronary artery
  vasodilation / coronary blood flow: increase in coronary blood flow
patients
  side effects: rare but potentially serious side effects which include myocardial ischemia, cardiac arrhythmia, and sudden death

## CCNC(=O)[C@H]1O[C@@H](n2cnc3c(N)ncnc32)[C@H](O)[C@@H]1O [NECA, 5'-N-ethylcarboxamido-adenosine]
A2 receptors [4]
  potency at A2 receptors: more potent than N^6 -substituted analogs

## Cn1cnc2c(NC3CCCCC3)ncnc21 [N^6 -Cyclohexyl-9-MA]
A1 receptors [5]
  Ki: 0.94 µM

## CCC(Cc1cccs1)Nc1ncnc2c1ncn2C (stereo not drawn) [N^6-1-(2-thienyl)-2-butyl-9-MA]
A1 adenosine receptors
  basal force of contraction in the atria: increases in basal force of contraction
  competitive antagonism at adenosine receptors in the atria: competitive antagonists

## CCC(CC)Nc1ncnc2c1ncn2C [N^6-3-Pentyl-9-MA]
A2 adenosine receptors
  antagonism of the effects of adenosine agonists in relaxing the taenia caecum: did not competitively antagonize
  selectivity for A1 adenosine receptors: selective for A1 adenosine receptors
A1 adenosine receptors
  basal force of contraction in the atria: increases in basal force of contraction
  competitive antagonism at adenosine receptors in the atria: competitive antagonists

## Cn1c(=O)c2c(ncn2C)n(C)c1=O [caffeine]
Adenosine receptors
  antagonism at adenosine receptors: best known antagonists at adenosine receptors

## Cn1cnc2c(NC3CCCC3)ncnc21 [compound 0840, N^6-cyclopentyl-9-MA]
A2 adenosine receptors
  antagonism of the effects of adenosine agonists in relaxing the taenia caecum: did not competitively antagonize
  selectivity for A1 adenosine receptors: selective for A1 adenosine receptors
A1 receptors [5]
  Ki: 0.54 µM
A1 receptors [5]; A1 receptors
  potency relative to 9-methyladenine at A1 receptors: at least 100 fold
A2 receptors [6]; human platelet assay
  potency relative to 9-methyladenine at A2 receptors: fivefold more potent
A1 adenosine receptors
  competitive antagonism at adenosine receptors in the atria: competitive antagonists

## C[C@@H](Cc1ccccc1)Nc1ncnc2c1ncn2C [compound 0986, N^6 -S-1-phenyl-2-propyl-9-MA]
A1 receptors [7]
  Kb: 23 µM

## N^6 -Methylcylopentyl-9-MA
A1 receptors [5]
  Ki: 2.5 µM
A2 receptors [6]; read-out: KB vs NECA Stimulation (Adenylate Cyclase), A2 Effects, (A) Human Platelet Membranes
  Kb: 45 µM
A1 receptors [7]; (C) Rat Fat Cell Membranes, read-out: KB vs PIA INHIBITION (Adenylate Cyclase), A1 Effects
  Kb: 9 µM
A2 receptors [8]
  Kb: 56 µM
